± gives the standard deviation of the averaged measurements.
How the values were obtained:
[1] = compound: CC(=O)NCC(=O)N1[C@@H]2CC[C@H]1c1ccc(Nc3ncc(C(F)(F)F)c(NC4CCC4)n3)cc12; experiment: surviving fraction relative to DMSO-only wells; higher = less growth inhibition; details: exposure time: 5 days
How it was run: (§1)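 Lines were retained only if, across three screens, replicate Pearson r was >0.7 and median Z' was >0.3. Viability was measured as CellTiter-Glo luminescence and reported as surviving fraction relative to the median of DMSO-only wells. Readings followed 10 minutes at room temperature, after log-phase tumour cells seeded at 250–500 per well in 384-well plates had been exposed, from 24 hours after seeding, continuously for five days to inhibitors at 0.5, 1, 5, 10, 50, 100, 500 and 1000 nM.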

PACLITAXEL [2] = compound: T1, CC(=O)O[C@H]1C(=O)[C@@]2(C)[C@H]([C@H](OC(=O)c3ccccc3)[C@]3(O)C[C@H](OC(=O)[C@H](O)[C@@H](NC(=O)c4ccccc4)c4ccccc4)C(C)=C1C3(C)C)[C@]1(OC(C)=O)CO[C@@H]1C[C@@H]2O [PACLITAXEL]; experiment: as above; details: exposure time: 5 days
How it was run: as §1

[3] = compound: CC(=O)c1c(C)c2cnc(Nc3ccc(N4CCNCC4)cn3)nc2n(C2CCCC2)c1=O; experiment: as above; details: exposure time: 5 days
How it was run: as §1

CAMPTOTHECIN [4] = compound: T2, CC[C@@]1(O)C(=O)OCc2c1cc1n(c2=O)Cc2cc3ccccc3nc2-1 [CAMPTOTHECIN]; experiment: as above; details: exposure time: 5 days
How it was run: as §1

YM155 [5] = compound: T3, COCC[n+]1c2c(n(Cc3cnccn3)c1C)C(=O)c1ccccc1C2=O [YM155]; experiment: as above; details: exposure time: 5 days
How it was run: as §1

GEFITINIB [6] = compound: T4, COc1cc2ncnc(Nc3ccc(F)c(Cl)c3)c2cc1OCCCN1CCOCC1 [GEFITINIB]; experiment: as above; details: exposure time: 5 days
How it was run: as §1

OSI-906 [7] = compound: T5, C[C@]1(O)C[C@@H](c2nc(-c3ccc4ccc(-c5ccccc5)nc4c3)c3c(N)nccn32)C1 [OSI-906]; experiment: as above; details: exposure time: 5 days
How it was run: as §1

CELECOXIB [8] = compound: T6, Cc1ccc(-c2cc(C(F)(F)F)nn2-c2ccc(S(N)(=O)=O)cc2)cc1 [CELECOXIB]; experiment: as above; details: exposure time: 5 days
How it was run: as §1

CARBOPLATIN [9] = compound: T7, O=C(O)C1(C(=O)O)CCC1.[NH2-].[NH2-].[Pt+2] [CARBOPLATIN]; experiment: as above; details: exposure time: 5 days
How it was run: as §1

[10] = compound: CC(=O)NCC(=O)N1[C@@H]2CC[C@H]1c1ccc(Nc3ncc(C(F)(F)F)c(NC4CCC4)n3)cc12; experiment: area under dose-response curve of surviving fraction (unscaled, Aref=0) (surviving fraction x log10(nM)); higher = more resistant; details: exposure time: 5 days; dose range 0.5-1000 nM
How it was run: (§2)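 Tumour cell lines in 384-well plates were exposed to eight inhibitor concentrations, from 0.5 to 1000 nM, for five days, and viability was read by CellTiter-Glo luminescence in three screens per line. Signals were normalised to DMSO-only wells, and 3-parameter logistic regression in the drc R package fitted dose-response survival curves to the surviving fractions. Area under the curve is given as the unscaled activity area. That area is taken over log10 dose with Aref = 0.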

PACLITAXEL [11] = compound: T1, PACLITAXEL; experiment: as above; details: exposure time: 5 days; dose range 0.5-1000 nM
How it was run: as §2

[12] = compound: CC(=O)c1c(C)c2cnc(Nc3ccc(N4CCNCC4)cn3)nc2n(C2CCCC2)c1=O; experiment: as above; details: exposure time: 5 days; dose range 0.5-1000 nM
How it was run: as §2

CAMPTOTHECIN [13] = compound: T2, CAMPTOTHECIN; experiment: as above; details: exposure time: 5 days; dose range 0.5-1000 nM
How it was run: as §2

YM155 [14] = compound: T3, YM155; experiment: as above; details: exposure time: 5 days; dose range 0.5-1000 nM
How it was run: as §2

GEFITINIB [15] = compound: T4, GEFITINIB; experiment: as above; details: exposure time: 5 days; dose range 0.5-1000 nM
How it was run: as §2

OSI-906 [16] = compound: T5, OSI-906; experiment: as above; details: exposure time: 5 days; dose range 0.5-1000 nM
How it was run: as §2

CELECOXIB [17] = compound: T6, CELECOXIB; experiment: as above; details: exposure time: 5 days; dose range 0.5-1000 nM
How it was run: as §2

CARBOPLATIN [18] = compound: T7, CARBOPLATIN; experiment: as above; details: exposure time: 5 days; dose range 0.5-1000 nM
How it was run: as §2

Test System OSHN BONE has a surviving fraction ([1]; 0.5 nM) of 1.01 ± 0.028, a surviving fraction ([1]; 1 nM) of 1 ± 0.029 and a surviving fraction ([1]; 5 nM) of 1 ± 0.025. For the same test system, the surviving fraction ([1]; 10 nM) was 0.993 ± 0.05, the surviving fraction ([1]; 50 nM) was 0.991 ± 0.02 and the surviving fraction ([1]; 100 nM) was 0.206 ± 0.0076. It also gave a surviving fraction ([1]; 500 nM) of 0.407 ± 0.036, a surviving fraction ([1]; 1000 nM) of 0.218 ± 0.011 and a surviving fraction (PACLITAXEL [2]; 0.5 nM) of 1.03 ± 0.025. For the same test system, the surviving fraction (PACLITAXEL [2]; 1 nM) was 1.05 ± 0.012, the surviving fraction (PACLITAXEL [2]; 5 nM) was 0.0353 ± 0.0015 and the surviving fraction (PACLITAXEL [2]; 10 nM) was 0.0313 ± 0.0011. It also gave a surviving fraction (PACLITAXEL [2]; 50 nM) of 0.0273 ± 0.00058, a surviving fraction (PACLITAXEL [2]; 100 nM) of 0.0243 ± 0.00058 and a surviving fraction (PACLITAXEL [2]; 500 nM) of 0.018. It also gave a surviving fraction (PACLITAXEL [2]; 1000 nM) of 0.022 ± 0.001, a surviving fraction ([3]; 0.5 nM) of 1.091 ± 0.005 and a surviving fraction ([3]; 1 nM) of 1.073 ± 0.0079. It also gave a surviving fraction ([3]; 5 nM) of 1.09 ± 0.022, a surviving fraction ([3]; 10 nM) of 1.07 ± 0.018 and a surviving fraction ([3]; 50 nM) of 1.12 ± 0.037. The surviving fraction ([3]; 100 nM) was 1.1 ± 0.018, the surviving fraction ([3]; 500 nM) was 1.13 ± 0.02 and the surviving fraction ([3]; 1000 nM) was 1.08 ± 0.032. The surviving fraction (CAMPTOTHECIN [4]; 0.5 nM) was 0.83 ± 0.013, the surviving fraction (CAMPTOTHECIN [4]; 1 nM) was 0.842 ± 0.007 and the surviving fraction (CAMPTOTHECIN [4]; 5 nM) was 0.47 ± 0.079. It also gave a surviving fraction (CAMPTOTHECIN [4]; 10 nM) of 0.108 ± 0.018, a surviving fraction (CAMPTOTHECIN [4]; 50 nM) of 0.0807 ± 0.0076 and a surviving fraction (CAMPTOTHECIN [4]; 100 nM) of 0.0593 ± 0.012. For the same test system, the surviving fraction (CAMPTOTHECIN [4]; 500 nM) was 0.0367 ± 0.0083, the surviving fraction (CAMPTOTHECIN [4]; 1000 nM) was 0.034 ± 0.0044 and the surviving fraction (YM155 [5]; 0.5 nM) was 1.02 ± 0.021. The surviving fraction (YM155 [5]; 1 nM) was 1.05 ± 0.019, the surviving fraction (YM155 [5]; 5 nM) was 0.265 ± 0.013 and the surviving fraction (YM155 [5]; 10 nM) was 0.097 ± 0.008. For the same test system, the surviving fraction (YM155 [5]; 50 nM) was 0.0293 ± 0.0011, the surviving fraction (YM155 [5]; 100 nM) was 0.025 ± 0.001 and the surviving fraction (YM155 [5]; 500 nM) was 0.0203 ± 0.00058. The surviving fraction (YM155 [5]; 1000 nM) was 0.027 ± 0.0017, the surviving fraction (GEFITINIB [6]; 0.5 nM) was 1.1 ± 0.012 and the surviving fraction (GEFITINIB [6]; 1 nM) was 1.11 ± 0.017. The surviving fraction (GEFITINIB [6]; 5 nM) was 1.12 ± 0.013, the surviving fraction (GEFITINIB [6]; 10 nM) was 1.13 ± 0.026 and the surviving fraction (GEFITINIB [6]; 50 nM) was 1.15 ± 0.0076. The surviving fraction (GEFITINIB [6]; 100 nM) was 1.15 ± 0.024, the surviving fraction (GEFITINIB [6]; 500 nM) was 1.142 ± 0.0066 and the surviving fraction (GEFITINIB [6]; 1000 nM) was 1.11 ± 0.021. The surviving fraction (OSI-906 [7]; 0.5 nM) was 0.887 ± 0.024, the surviving fraction (OSI-906 [7]; 1 nM) was 0.912 ± 0.026 and the surviving fraction (OSI-906 [7]; 5 nM) was 0.902 ± 0.028. For the same test system, the surviving fraction (OSI-906 [7]; 10 nM) was 0.884 ± 0.046, the surviving fraction (OSI-906 [7]; 50 nM) was 0.945 ± 0.0072 and the surviving fraction (OSI-906 [7]; 100 nM) was 0.927 ± 0.013. For the same test system, the surviving fraction (OSI-906 [7]; 500 nM) was 0.758 ± 0.012, the surviving fraction (OSI-906 [7]; 1000 nM) was 0.732 ± 0.027 and the surviving fraction (CELECOXIB [8]; 0.5 nM) was 1.099 ± 0.0076. The surviving fraction (CELECOXIB [8]; 1 nM) was 1.091 ± 0.0078, the surviving fraction (CELECOXIB [8]; 5 nM) was 1.13 ± 0.018 and the surviving fraction (CELECOXIB [8]; 10 nM) was 1.1 ± 0.019. For the same test system, the surviving fraction (CELECOXIB [8]; 50 nM) was 1.132 ± 0.0091, the surviving fraction (CELECOXIB [8]; 100 nM) was 1.15 ± 0.029 and the surviving fraction (CELECOXIB [8]; 500 nM) was 1.15 ± 0.023. The surviving fraction (CELECOXIB [8]; 1000 nM) was 1.11 ± 0.015, the surviving fraction (CARBOPLATIN [9]; 0.5 nM) was 1.091 ± 0.0051 and the surviving fraction (CARBOPLATIN [9]; 1 nM) was 1.06 ± 0.022. For the same test system, the surviving fraction (CARBOPLATIN [9]; 5 nM) was 1.09 ± 0.035, the surviving fraction (CARBOPLATIN [9]; 10 nM) was 1.05 ± 0.044 and the surviving fraction (CARBOPLATIN [9]; 50 nM) was 1.141 ± 0.0049. For the same test system, the surviving fraction (CARBOPLATIN [9]; 100 nM) was 1.13 ± 0.015, the surviving fraction (CARBOPLATIN [9]; 500 nM) was 1.15 ± 0.014 and the surviving fraction (CARBOPLATIN [9]; 1000 nM) was 1.113 ± 0.011. The “area under dose-response curve” value [10] was 2.43, the “area under dose-response curve” value (PACLITAXEL [11]) was 0.555 and the “area under dose-response curve” value [12] was 3.62. For the same test system, the “area under dose-response curve” value (CAMPTOTHECIN [13]) was 0.918, the “area under dose-response curve” value (YM155 [14]) was 0.946 and the “area under dose-response curve” value (GEFITINIB [15]) was 3.72. For the same test system, the “area under dose-response curve” value (OSI-906 [16]) was 2.89, the “area under dose-response curve” value (CELECOXIB [17]) was 3.7 and the “area under dose-response curve” value (CARBOPLATIN [18]) was 3.65.

Reference: the supplement of paper PMC6045584
